According to patent publication US20010051628A1, “METHODS TO MODULATE THE RESISTANCE OF CELLS TO APOPTOSIS MEDIATED BY MUTANT EPIDERMAL GROWTH FACTOR RECEPTORS” (priority 1998, published 2001):

Tests used:
protein kinase C (PKC) = conditions: cited from earlier work
[1] = system: human glioblastoma spheroids; conditions: cited from earlier work
EGFR = conditions: monolayers at the IC20 doses; cited from earlier work
glioma cell = conditions: cited from earlier work; for serum-driven cell growth: dose-dependent
[2] = system: human glioblastoma cell lines; conditions: read-out: IC20 for monolayer growth inhibition; cited from earlier work
[3] = system: human glioma cell lines A172, U563 or U251; conditions: cited from earlier work
glioma = conditions: pre-treatment with LTC4; cited from earlier work
U87MG.ΔEGFR cells [4] = experiment: In situ TUNEL labeling of apoptotic DNA fragmentation; assay type: cell-based, human
Method: Cells were seeded on cover slips, treated with 5 μg/ml of CDDP for 2 days, and then TUNEL assays were performed. The percent of TUNEL-positive cells induced by CDDP treatment was assessed by counting more than 400 cells per coverslip. □, U87MG; ▪, U87MG.ΔEGFR;_, U87MG.DK;_, U87MG.wtEGFR.
For each sample, 20 μg of lysate was used. […] For control, the vehicle (DMSO) was used. Apoptosis rate determined by TUNEL assays of triplicate cover slips.
Apoptotic cells were detected by use of terminal deoxynucleotidyl transferase mediated nick end labeling (TUNEL) of apoptotic DNA strand breaks as described (16). Apoptotic index was calculated as a ratio of apoptotic cell number to total tumor cell number within the areas by counting more than 400 cells in each coverslip.

Bcl-XL = experiment: Western blot of Bcl-XL expression; assay type: cell-based, human
Method: Total cell lysates were prepared at the various time points indicated. For each sample, 20 μg of lysate protein was used. Results were reproduced in three independent experiments. […] For each sample, 20 μg of lysate was used. […] For control, the vehicle (DMSO) was used. Apoptosis rate determined by TUNEL assays of triplicate cover slips. […] Cell lysates were prepared in RIPA buffer (16), equal protein per sample was separated on SDS-polyacrylamide gels, and transferred to nitrocellulose membranes (BioRad, Hercules, Calif.). Proteins on the membranes were probed with antibodies to Bcl-XL (Transduction, Lexington, Ky.), poly(ADP-ribose) polymerase (PARP) (C2-10; […]

caspase-3-like proteases = experiment: Caspase activity assay in lysates of treated cells (Ac-DEVD-pNA substrate); assay type: cell-based, human; conditions: for CDDP-induced caspase activation on co-treatment with tyrphostin: data not shown; for caspase-3-like protease activity relative to basal activity: 48 hours after CDDP 5 μg/ml
Method: (§1) (A) Total cell lysates were prepared 2 days after treatment with 5 μg/ml CDDP. Samples were assayed for protease activity using the peptide substrate, Ac-DEVD-pNA. […] Cells were also treated with the plasma membrane-soluble caspase inhibitor Z-Asp-CH2DCB (200 μM) prior to and during CDDP treatment. □, U87MG; ▪, U87MG.ΔEGFR;_, U87MG.DK;_, U87MG.wtEGFR. […] (B) Proteolytic cleavage of PARP after CDDP treatment. For each sample, 20 μg total clarified protein lysate was loaded on to SDS-PAGE gels, electrophoresed, transferred to membranes and probed with anti-PARP monoclonal antibodies. FL, full-length; CF, cleaved fragment.
Cells were lysed in lysis buffer (ApoAlert, Clontech, Palo Alto, Calif.) for 15 min on ice, followed by centrifugation. Protease assays included 89 μl of reaction buffer (100 mM HEPES, pH 7.5, 20% v/v glycerol, 6 mM dithiothreitol, and 0.5 mM EDTA), I μl of 10 mM acetyl-Asp-Glu-Val-Asp-p-nitroanilide (Ac-DEVD-pNA) in DMSO (California Peptide Research, Inc., Napa, Calif.), and 10 μl of equal protein cell lysate. Samples were incubated at 37° C., and enzyme-catalyzed release of p-nitroanilide (pNA) was monitored at […] for 1 h in a microtiter plate reader (Molecular Devices Inc., Sunnyvale, Calif.). Aliquots of cell lysates diluted into the reaction buffer were first incubated with 10 μM caspase-3-like protease inhibitor, Ac-Asp-Glu-Val-Asp-aldehyde (Ac-DEVD-CHO) (Bachem, Torrance, Calif.), at 37° C. for 30 min. Values for picomoles of pNA released were calculated from those observed in OD405 values using a standard curve of pNA. One unit of protease activity was defined as the amount of enzyme required to release 1 pmol pNA/min at 37° C. For in vivo caspase inhibition studies, cells were cultured in the presence of peptide caspase inhibitor Z-Asp-CH2-DCB (Bachem).

tumors = conditions: EGF plus cisplatin versus cisplatin alone; cited from earlier work
caspase-3-like protease = experiment: Inhibition of caspase activity by pre-incubating cell lysates with inhibitor; assay type: biochemical, human; conditions: 10 μM, lysates pre-incubated at 37° C. for 30 min
Method: as §1
Cells were lysed in lysis buffer (ApoAlert, Clontech, Palo Alto, Calif.) for 15 min on ice, followed by centrifugation. Protease assays included 89 μl of reaction buffer (100 mM HEPES, pH 7.5, 20% v/v glycerol, 6 mM dithiothreitol, and 0.5 mM EDTA), I μl of 10 mM acetyl-Asp-Glu-Val-Asp-p-nitroanilide (Ac-DEVD-pNA) in DMSO (California Peptide Research, Inc., Napa, Calif.), and 10 μl of equal protein cell lysate. Samples were incubated at 37° C., and enzyme-catalyzed release of p-nitroanilide (pNA) was monitored at […] for 1 h in a microtiter plate reader (Molecular Devices Inc., Sunnyvale, Calif.). […] Values for picomoles of pNA released were calculated from those observed in OD405 values using a standard curve of pNA. […]

U-87 glioma xenografts = conditions: continuous intraperitoneal infusion; cited from earlier work
[5] = system: malignant glioma cell lines; conditions: cited from earlier work
U87MG.ΔEGFR cells [6] = experiment: Cell survival (colony forming efficiency) assay; assay type: cell-based, human; conditions: drug 1 hr, then 10 to 12 days in fresh medium; colony count
Method: Western blot analysis of expression (lower) and auto-phosphorylation (upper) of wt EGFR (♦) and ΔEGFR (●) in U87MG, U87MG.ΔEGFR, U87MG.DK and U87MG.wtEGFR cells grown in media containing 10% serum. Low and similar levels of endogenous wt EGFR expression was also detected in U87MG, U87MG.ΔEGFR and U87MG.DK at longer exposures (data not shown). […] Cells were plated in triplicate 60-mm dishes and treated with media containing various concentrations of CDDP for 1 hr, followed by incubation with fresh media for 10 to 12 days. Numbers of colonies were counted after Giemsa staining. Results were reproduced in four independent experiments; bars, SID.
To determine the level of resistance of the cells to chemotherapeutic agents, colony forming efficiency assays were performed as described (20). Briefly, 400 or 700 cells were seeded in triplicate into dishes having a 60-mm diameter. On the next day cells were treated with various concentrations of CDDP for 1 hr or Taxol or vincristine for 2 hr, and then further incubated for 10 to 12 days in the fresh medium. The cells were fixed in methanol, stained with Giemsa solution (Sigma) and the number of colonies containing greater than 50 cells were counted. The survival fraction was calculated as the ratio of the colony-forming efficiency of drug-treated and untreated cells. […]

PARP = experiment: Western blot of proteolytic cleavage of PARP; assay type: cell-based, human
Method: as §1
Cell lysates were prepared in RIPA buffer (16), equal protein per sample was separated on SDS-polyacrylamide gels, and transferred to nitrocellulose membranes (BioRad, Hercules, Calif.). Proteins on the membranes were probed with antibodies to Bcl-XL (Transduction, Lexington, Ky.), poly(ADP-ribose) polymerase (PARP) (C2-10; Enzyme System Products, Dublin, Calif.), EGFR (C13) (15), or phosphotyrosine (4G10, Upstate Biotechnology, Lake Placid, N.Y.), and detected by chemiluminescence (Amersham).

[7] = system: nitric oxide synthase (NOS); conditions: C6 glial cells; cited from earlier work

In the case of `O=c1c(-c2ccc(O)cc2)coc2cc(O)cc(O)c12` [genistein], the PKC activity (protein kinase C (PKC)) is listed as “dose dependently reduced”, the infiltration ([1]; genistein at 10 μmol/L) is listed as “completely inhibited” and the EGFR-associated tyrosine phosphorylation (EGFR) is listed as “no change”. The “DNA synthesis induced by growth factors (EGF, PDGF; serum for the tyrphostins)” value (“DNA synthesis induced by growth factors” for short) (glioma cell) was “inhibited”, the “cytotoxicity to the cells” value (glioma cell) was “cytotoxic” and the IC20 [2] was 10 µM. The proliferation rate [3] was “inhibited”.

For `CCCCC/C=C\C\C=C/C=C/C=C/[C@@H](SC[C@H](NC(=O)CC[C@H](N)C(=O)O)C(=O)NCC(=O)O)[C@@H](O)CCCC(=O)O` [LTC4], the “survival of CDDP-treated animals” value (glioma) is listed as “increased survival to a statistically significant degree”.

In the case of `N#CC(C#N)=Cc1cc(O)c(O)c(O)c1` [tyrphostin A25], the invasion ([1]; tyrphostin A25 at 3 μmol/L, third cell line) is listed as “reduced invasion”, the EGFR-associated tyrosine phosphorylation (EGFR) is listed as “no change” and the IC20 [2] is listed as 3 µM.

In the case of `CO[C@@H]1[C@H](N(C)C(=O)c2ccccc2)C[C@H]2O[C@]1(C)n1c3ccccc3c3c4c(c5c6ccccc6n2c5c31)C(=O)NC4` [CGP 41 251], the PKC activity (protein kinase C (PKC)) is given as “reduced” and the proliferation rate [3] is given as “reduced”.

In the case of `N#CC(C#N)=Cc1cc(O)c(O)c(O)c1` [RG 50875], the “DNA synthesis induced by growth factors” value (glioma cell) is listed as “dose-dependently inhibit”, the “cytotoxicity to the cells” value (glioma cell) is listed as “no cytotoxic side effects” and the “selectivity in blocking either EGF or PDGF signaling” value (glioma cell) is listed as “no selectivity”. The serum-driven cell growth (glioma cell) was “inhibit”.

For `COc1cc2ncnc(Nc3cccc(Cl)c3)c2cc1OC` [AG1478], the “apoptosis induction, tyrphostin in combination with CDDP” value (U87MG.ΔEGFR cells [4]; U87MG.ΔEGFR cells, CDDP 5 μg/ml for 2 days, concentrations per FIG. 6B) was “significant apoptosis in a dose-dependent and synergistic manner”, the Bcl-XL expression (Bcl-XL; U87MG.ΔEGFR cells, 15 μM) was “marked reduction” and the “CDDP-induced caspase activation on co-treatment with tyrphostin” value (caspase-3-like proteases; U87MG.ΔEGFR cells) was “enhanced”.

In the case of “EGF: epidermal growth factor administered with cisplatin (NSDSECPLSHDGYCLHDGVCMYIEALDKYACNCVVGYIGERCQYRDLKWWELR; Epidermal growth factor; UniProt P01133 971-1023, looked up)”, the “cisplatin-induced tumor cell kill (final tumor volume)” value (tumors) is listed as “significantly enhance”.

In the case of `COc1cc2ncnc(Nc3cccc(Br)c3)c2cc1OC` [AG1517], the “CDDP-induced caspase activation on co-treatment with tyrphostin” value (caspase-3-like proteases; U87MG.ΔEGFR cells) is reported as “enhanced”.

In the case of “Ac-Asp-Glu-Val-Asp-aldehyde (Ac-DEVD-aldehyde) [Ac-DEVD-CHO]”, the “effect on increased caspase activities of lysates from CDDP-treated cells” value (caspase-3-like protease) is reported as “completely abolished”.

For `CN[C@@H]1C[C@H]2O[C@@](C)([C@@H]1OC)n1c3ccccc3c3c4c(c5c6ccccc6n2c5c31)C(=O)N[C@H]4O` [UCN-01, seven-hydroxystaurosporine], the “activity against U-87 glioma xenografts” value (U-87 glioma xenografts) is given as “significant activity”, the “combination with 1,3-bis(2-chloroethyl)-1-nitrosourea, inhibition of glioma cell proliferation” value [5] is given as “additive effects” and the “combination with cisplatin, inhibition of glioma cell proliferation” value [5] is given as “synergistic effects”.

In the case of `[NH2][Pt]([NH2])([Cl])[Cl]` [CDDP, cisplatin], the “proportion of TUNEL-positive cells, U87MG.ΔEGFR lower than U87MG, U87MG.DK or U87MG.wtEGFR” value (U87MG.ΔEGFR cells [4]; CDDP 5 μg/ml for 2 days, p<0.001) is reported as “more than 5 fold lower”, the “Bcl-XL expression level during CDDP treatment” value (Bcl-XL; U87MG, U87MG.DK and U87MG.wtEGFR cells, continuous exposure for more than 24 hr) is reported as “equally decreased” and the “Bcl-XL expression level during CDDP treatment” value (Bcl-XL; U87MG.ΔEGFR cells) is reported as “remained unchanged”. For the same compound, the “IC50 value (survival) of U87MG.ΔEGFR cells relative to parental U87MG cells” value (U87MG.ΔEGFR cells [6]) was 4.3 fold, the “caspase-3-like protease activity relative to basal activity” value (caspase-3-like proteases; U87MG parental cells) was 5.3 fold and the “caspase-3-like protease activity relative to basal activity” value (caspase-3-like proteases; U87MG.DK cells) was 4.7 fold. The “caspase-3-like protease activity relative to basal activity” value (caspase-3-like proteases; U87MG.wtEGFR cells) was 6.4 fold, the “caspase-3-like protease activity relative to basal activity” value (caspase-3-like proteases; U87MG.ΔEGFR cells) was 2.0 fold and the “cleavage of 116-kDa full-length PARP into 85-kDa fragment” value (PARP; U87MG, U87MG.DK and U87MG.wtEGFR cells, 24 hr after CDDP) was “observed”. For the same compound, the “cleavage of 116-kDa full-length PARP into 85-kDa fragment” value (PARP; U87MG.ΔEGFR cells, 48 hr after CDDP) was “trace levels”.

With `O=C(O)C[C@H](NC(=O)OCc1ccccc1)C(=O)COC(=O)c1c(Cl)cccc1Cl` [Z-Asp-CH2-DCB] the “effect on CDDP-induced apoptosis” value (U87MG.ΔEGFR cells [4]; cells treated with CDDP in the presence of the inhibitor, data not shown) was “significant inhibition” and the “caspase-3-like protease activity of cells treated with CDDP in the presence of the inhibitor” value (caspase-3-like proteases; 200 μM prior to and during CDDP treatment, U87MG and sublines) was “did not exhibit an increase”.

In the case of `CO[C@H]1[C@@H](OC)C[C@H](C)[C@@H](OC)C2=CC(=O)C=C(NC(=O)/C(C)=C/C=C\[C@H](OC)[C@@H](OC(N)=O)/C(C)=C/[C@@H]1C)C2=O` [herbimycin A], the “NOS induced by LPS and IFN-gamma” value [7] is given as “suppressed”.

In the case of `COc1ccc(/C=C(\C#N)c2cccnc2)cc1OC` [RG 13022], the “EGF- and PDGF-induced DNA synthesis” value (glioma cell; 50 μmol/L) is listed as “completely blocked”, the “DNA synthesis induced by growth factors” value (glioma cell) is listed as “dose-dependently inhibit” and the “cytotoxicity to the cells” value (glioma cell) is listed as “no cytotoxic side effects”. For the same compound, the “selectivity in blocking either EGF or PDGF signaling” value (glioma cell) was “no selectivity” and the serum-driven cell growth (glioma cell) was “inhibit”.
